Experimental data as given in ChEMBL document CHEMBL1201862, “PubChem BioAssay data set” (2004).
The source made the active and inactive calls.

Legend:
[1] = biological target: T1, Replicative DNA helicase DnaB (Mycobacterium tuberculosis, UniProt P9WMR3); assay: DnaB intein splicing inhibitors, dose response, biochemical, cell-free fluorescence (AID 449749); type: functional
T1 sequence (P9WMR3 whole entry): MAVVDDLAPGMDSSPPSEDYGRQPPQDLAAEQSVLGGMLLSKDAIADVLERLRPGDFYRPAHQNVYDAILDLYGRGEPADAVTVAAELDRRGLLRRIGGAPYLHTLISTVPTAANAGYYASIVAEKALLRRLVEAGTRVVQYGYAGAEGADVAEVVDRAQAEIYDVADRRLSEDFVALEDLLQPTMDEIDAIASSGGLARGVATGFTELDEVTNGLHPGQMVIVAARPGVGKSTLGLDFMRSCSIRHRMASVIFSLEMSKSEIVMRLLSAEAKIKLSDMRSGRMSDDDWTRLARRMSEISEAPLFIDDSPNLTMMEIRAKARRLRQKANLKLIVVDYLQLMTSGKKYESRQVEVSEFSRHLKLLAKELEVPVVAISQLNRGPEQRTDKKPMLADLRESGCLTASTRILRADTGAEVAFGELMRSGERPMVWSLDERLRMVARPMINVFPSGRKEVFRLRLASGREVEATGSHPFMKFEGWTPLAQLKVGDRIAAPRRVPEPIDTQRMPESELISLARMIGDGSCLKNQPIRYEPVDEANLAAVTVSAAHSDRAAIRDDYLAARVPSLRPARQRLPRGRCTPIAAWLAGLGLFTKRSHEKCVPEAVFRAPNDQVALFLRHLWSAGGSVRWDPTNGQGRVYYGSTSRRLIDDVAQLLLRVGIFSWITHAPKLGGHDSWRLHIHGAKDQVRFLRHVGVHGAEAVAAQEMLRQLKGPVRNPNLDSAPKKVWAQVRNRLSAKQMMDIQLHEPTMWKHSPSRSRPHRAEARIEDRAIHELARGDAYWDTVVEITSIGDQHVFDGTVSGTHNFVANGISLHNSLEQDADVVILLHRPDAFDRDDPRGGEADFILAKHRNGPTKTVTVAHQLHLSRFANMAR

Hexokinase HKDC1 = biological target: T2, Hexokinase HKDC1 (Homo sapiens, UniProt Q2TB90); assay: inhibition of HKDC1 glucose phosphorylation – biochemical, W721R variant, dose response (AID 504729); type: functional
T2 sequence (Q2TB90 whole entry): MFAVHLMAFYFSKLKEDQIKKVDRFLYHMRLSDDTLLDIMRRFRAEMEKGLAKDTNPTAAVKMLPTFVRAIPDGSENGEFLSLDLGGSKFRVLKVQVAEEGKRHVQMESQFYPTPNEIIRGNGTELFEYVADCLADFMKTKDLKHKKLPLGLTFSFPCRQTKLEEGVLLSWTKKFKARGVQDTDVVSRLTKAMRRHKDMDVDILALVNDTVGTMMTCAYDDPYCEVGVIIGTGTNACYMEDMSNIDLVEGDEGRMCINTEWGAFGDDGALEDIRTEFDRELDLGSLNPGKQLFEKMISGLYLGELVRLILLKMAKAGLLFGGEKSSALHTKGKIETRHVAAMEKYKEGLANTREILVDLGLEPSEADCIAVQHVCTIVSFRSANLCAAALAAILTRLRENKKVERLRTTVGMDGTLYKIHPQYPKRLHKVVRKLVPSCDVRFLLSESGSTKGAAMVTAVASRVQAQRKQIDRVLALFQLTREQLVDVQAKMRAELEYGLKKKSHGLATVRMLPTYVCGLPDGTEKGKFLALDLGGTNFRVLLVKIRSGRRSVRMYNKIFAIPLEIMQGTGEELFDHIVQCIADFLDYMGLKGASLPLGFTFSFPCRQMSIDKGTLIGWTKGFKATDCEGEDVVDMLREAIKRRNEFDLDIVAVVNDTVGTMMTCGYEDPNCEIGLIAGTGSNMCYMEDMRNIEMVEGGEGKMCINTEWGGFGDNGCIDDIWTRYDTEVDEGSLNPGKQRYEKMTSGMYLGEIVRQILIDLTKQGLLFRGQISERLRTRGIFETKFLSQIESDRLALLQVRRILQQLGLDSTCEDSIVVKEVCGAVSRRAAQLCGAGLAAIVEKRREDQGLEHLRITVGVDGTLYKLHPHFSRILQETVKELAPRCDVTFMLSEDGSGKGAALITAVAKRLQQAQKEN

Streptokinase A = biological target: T3, Streptokinase A (Streptococcus pyogenes serotype M1, UniProt P10520); assay: viability-normalized secreted streptokinase activity reduction – plasminogen activation absorbance, OD405, dose response (AID 1914); type: functional, Streptococcus pyogenes M1 GAS;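 also: secreted streptokinase activity via plasminogen activation per viability signal from cell pellet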
T3 sequence (P10520 whole entry): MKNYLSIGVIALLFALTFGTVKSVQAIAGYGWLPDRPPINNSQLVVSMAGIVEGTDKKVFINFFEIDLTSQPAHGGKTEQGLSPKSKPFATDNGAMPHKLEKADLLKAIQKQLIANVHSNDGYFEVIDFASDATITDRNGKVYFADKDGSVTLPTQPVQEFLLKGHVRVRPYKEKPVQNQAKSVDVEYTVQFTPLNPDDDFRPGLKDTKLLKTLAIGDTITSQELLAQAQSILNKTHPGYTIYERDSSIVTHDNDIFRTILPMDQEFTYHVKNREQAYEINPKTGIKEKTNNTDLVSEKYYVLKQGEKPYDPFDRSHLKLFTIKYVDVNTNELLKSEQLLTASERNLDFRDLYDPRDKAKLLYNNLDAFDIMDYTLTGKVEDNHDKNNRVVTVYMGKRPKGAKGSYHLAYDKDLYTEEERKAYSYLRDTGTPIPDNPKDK

[2] = Luminescence Cell-Based Dose Response HTS to Identify Inhibitors of 5'UTR Stem-Loop Driven Prion Protein mRNA Translation in H4 Neuroglioblastoma Cells. [Related pubchem assays: 1827 (Project Summary), 1813 (Primary HTS)]; type: functional
[3] = biological target: Sphingosine 1-phosphate receptor 1 (Homo sapiens, UniProt P21453); type: functional;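 also: Tango beta-arrestin reporter U2OS cells stimulated with S1P near its EC80; inhibitor potency meaning antagonism of receptor activation by the natural agonist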
Vero = assay: cells; type: functional; conditions: Chlorocebus sabaeus
[4] = biological target: ATP-dependent molecular chaperone HSP82 (Candida albicans (strain WO-1) (Yeast), UniProt C4YTQ8); assay: steroid-induced GRE reporter decrease in yeast – S. cerevisiae, luminescence, Hsp90 inhibitor project, dose response (AID 2400); type: functional, cell-based;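 also: beta-galactosidase luminescence from glucocorticoid response element reporter as proxy for Hsp90 function; inhibitor potency where signal loss means Hsp90 inhibition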
ATP-dependent molecular chaperone HSP82, sequence (C4YTQ8 whole entry): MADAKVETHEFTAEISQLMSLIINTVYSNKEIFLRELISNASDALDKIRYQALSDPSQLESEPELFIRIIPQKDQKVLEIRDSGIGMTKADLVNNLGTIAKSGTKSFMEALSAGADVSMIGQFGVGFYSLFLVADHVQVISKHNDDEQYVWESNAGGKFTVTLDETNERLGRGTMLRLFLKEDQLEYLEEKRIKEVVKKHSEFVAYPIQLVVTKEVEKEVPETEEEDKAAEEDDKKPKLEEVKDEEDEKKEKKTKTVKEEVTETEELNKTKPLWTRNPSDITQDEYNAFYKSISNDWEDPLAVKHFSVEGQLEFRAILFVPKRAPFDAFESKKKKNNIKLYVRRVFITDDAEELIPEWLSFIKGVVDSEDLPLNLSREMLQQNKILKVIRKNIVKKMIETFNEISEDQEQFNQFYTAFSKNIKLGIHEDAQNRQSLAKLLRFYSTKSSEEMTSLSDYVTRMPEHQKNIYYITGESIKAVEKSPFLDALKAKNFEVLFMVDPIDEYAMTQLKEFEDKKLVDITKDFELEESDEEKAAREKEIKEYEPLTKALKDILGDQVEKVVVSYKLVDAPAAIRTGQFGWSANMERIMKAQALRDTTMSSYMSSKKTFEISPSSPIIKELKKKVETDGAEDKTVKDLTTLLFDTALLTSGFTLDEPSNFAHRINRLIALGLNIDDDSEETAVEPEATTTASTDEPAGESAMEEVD

Sphingosine 1-phosphate receptor 1, sequence (P21453 whole entry): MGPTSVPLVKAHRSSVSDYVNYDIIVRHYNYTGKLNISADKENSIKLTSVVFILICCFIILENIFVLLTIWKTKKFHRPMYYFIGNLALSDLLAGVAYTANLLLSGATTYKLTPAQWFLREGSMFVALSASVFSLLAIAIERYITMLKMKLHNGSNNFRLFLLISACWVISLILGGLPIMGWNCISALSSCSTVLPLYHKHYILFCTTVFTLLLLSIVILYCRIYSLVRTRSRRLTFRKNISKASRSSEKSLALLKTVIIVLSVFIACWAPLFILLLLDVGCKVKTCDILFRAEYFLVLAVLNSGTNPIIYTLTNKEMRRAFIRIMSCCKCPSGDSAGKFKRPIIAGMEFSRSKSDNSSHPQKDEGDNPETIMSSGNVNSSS

With `CCc1ccc(S(=O)(=O)/N=C2\C=C(Nc3ccc(C(=O)O)cc3)C(=O)c3ccccc32)cc1` the AC50 [1] was > 380 µM (inconclusive), the IC50 (Hexokinase HKDC1) was 6.5 µM (active) and the EC50 (Streptokinase A) was > 150 µM (not active).

In the case of `COc1cccc(/C=N/Nc2ccc([N+](=O)[O-])cn2)c1O`, the EC50 [2] is reported as 0.34 µM (active).

In the case of `Oc1c(C(c2ccccc2Cl)N2CCCC2)ccc2cccnc12` (configuration not stated), the IC50 [3] is reported as 5.93 µM (active), the CC50 (Vero) is reported as 17.1 µM (active) and the EC50 [4] is reported as > 160 µM (inactive).
